# Results published in PMC9800617, “Pharmacokinetics/pharmacodynamics of polymyxin B in patients with bloodstream infection caused by carbapenem-resistant Klebsiella pneumoniae” (Frontiers in Pharmacology, 2022).
# Values joined by “and” are separate entries in the source; they are usually repeats but may differ in a detail not shown here. Identical values can stand only once. Bridge positions count the residues as written; N and C are the ends. Square brackets hold non-standard residues; d marks the D form. Peptide text beside a SMILES is read from it. * marks the point of attachment. X1 = CC[C@H](C)CCCCC(=O)*; Dab = NCC[C@H](N)C(=O)O
# Key:
# [1] = cited from earlier work
# From the text: Nephrotoxicity following intravenous administration of polymyxin B may occur in up to ∼30% of patients and constitutes the major dose-limiting factor with polymyxin therapy ([Ouderkirk et al., 2003]; [Sobieszczyk et al., 2004]; [Phe et al., 2014]; [Oliota et al., 2019]). The inability to substantially increase the daily dose of polymyxins may lead to suboptimal dosing which compromises efficacy and increases the likelihood of resistance emerging ([Zavascki et al., 2007]; [Rigatto et al., 2014]). In the present study, no pathological factors affecting renal function were present in any of the p ...
# [2] = cited from earlier work; remark: listed apart in the source
# Experimental: Monte Carlo simulations were conducted for the probability of target attainment (PTA) analysis to guide the selection of optimal dosage regimens. Different dosage regimens were simulated by the PPK model and AUCss,24h were calculated. […] The maximal reductions in colony f ... || FIGURE 4 Probability of target attainment for different dosage regimens of polymyxin B against common carbapenem-resistant organisms according to PK/PD simulations. (A) Loading dose for three bacterial species. […] Or gani s m Dose Dosing MIC (mg/L) (m g/ k g) frequen c y 0.25 0.5 1 2 4 8 2 Loading 100.0 100.0 99.6 40.5 0 0 2.5 dose 100.0 100.0 100.0 71.0 2.0 0 Klebsiella 0.5 100.0 99.7 40.5 0.2 0 0 pneum oniae 0.75 Maintenance 100.0 100.0 90.6 11.0 0 0 1.0 dose, q12h 10 ...
# [3] = 24 critically ill patients, 0.45–3.38 mg/kg/day, no loading dose, ref Sandri et al., 2013, cited from earlier work
# Experimental: A good understanding of the PK of polymyxin B is essential for optimizing its clinical use. A previous population PK study examining the use of polymyxin B (0.45–3.38 mg/kg/day) in 24 critically ill patients reported an AUCss,24h of 66.9 ± 21.6 mg h/L (range, 16.4–117 mg h/L) and Css,avg of 2.79 ± 0.90 mg/L; no loading dose was administered ([Sandri et al., 2013]).
# [4] = cited from earlier work; remark: listed apart in the source
# Experimental: Our study is the first to specifically examine patients with BSI using the recommended dosage regimen of polymyxin B (2.5–3.0 mg/kg/d) ([Tsuji et al., 2019]). Previous studies utilizing PPK models to examine polymyxin B PK have included primarily critically ill patients with various medical conditions or patients with cystic fibrosis, and have employed a wide range of doses (0.45–3.38 mg/kg/day) ([Sandri et al., 2013]; [Avedissian et al., 2018]; [Kubin et al., 2018]; [Manchandani et al., 2018]; [Miglis et al., 2018]; [Yu et al., 2021]).
# [5] = Safety (adverse events, renal function) in BSI patients; format: in vivo, human
# Experimental: The definition of different population groups for safety and efficacy analysis is shown in Supplementary Table S2. Briefly, safety was evaluated based on adverse events (AEs) in patients who received at least one polymyxin B dose. Adverse events were recorded based on patient self-reporting as well as abnormal laboratory test results including serum chemistry and routine blood and urinary testing. Acute kidney injury (AKI) was graded according to the RIFLE criteria ([Bellomo et al., 2004]). The primary endpoint was culture-confirmed bacterial eradication of CRKP from the blood evaluated by blood cultures taken every 3 days following the first dose of polymyxin B administration. Secondary endpoints were clinical outcome (clinical cure or improvement, Supplementary Table S3) evaluated in patients who received at least 3 days of polymyxin B treatment, and 28-day all-cause mortality evaluated in patients who completed 14 days of polymyxin B treatment.
# K. pneumoniae = details: ref Landersdorfer et al., 2018, cited from earlier work
# Experimental: Monte Carlo simulations were conducted for the probability of target attainment (PTA) analysis to guide the selection of optimal dosage regimens. Different dosage regimens were simulated by the PPK model and AUCss,24h were calculated. […] The maximal reductions in colony f ... || FIGURE 4 Probability of target attainment for different dosage regimens of polymyxin B against common carbapenem-resistant organisms according to PK/PD simulations. (A) Loading dose for three bacterial species. […] In preclinical studies, the fAUC/MIC required for various magnitudes of bacterial killing varied among bacterial strains and infection sites. […] Against P. aeruginosa and A. b ... || (+ 2 further places)
# [6] = healthy subjects, ref Liu et al., 2021
# [7] = nine patients, 2.5 mg/kg loading, 1.25 mg/kg/12 h iv
smiles,measurement,setting,value
CC[C@H](C)CCCCC(=O)N[C@@H](CCN)C(=O)N[C@H](C(=O)N[C@@H](CCN)C(=O)N[C@H]1CCNC(=O)[C@H]([C@@H](C)O)NC(=O)[C@H](CCN)NC(=O)[C@H](CCN)NC(=O)[C@H](CC(C)C)NC(=O)[C@@H](Cc2ccccc2)NC(=O)[C@H](CCN)NC1=O)[C@@H](C)O [polymyxin B] (X1-[Dab]T[Dab][Dab][Dab][dF]L[Dab][Dab]T; lactam 4-C),incidence of nephrotoxicity reported previously,"[1]; ref Oliota et al., 2019",29.8%
same,incidence of polymyxin B-associated nephrotoxicity (RIFLE criteria),"[1]; ref Phe et al., 2014",23.1%
same,patients with nephrotoxicity following intravenous administration,"[1]; up to, ref Ouderkirk et al., 2003, Sobieszczyk et al., 2004, Phe et al., 2014, Oliota et al., 2019",~30%
same,unbound fraction in plasma,"[2]; as used in PK/PD simulations, given as fraction",0.42
same,unbound fraction (f) in human plasma,"[2]; human plasma, ref Sandri et al., 2013",42%
same,"AUCss,24h","[3]; mean ± SD, SD",66900 ± 21600 ng·h/mL
same,"Css,avg","[3]; mean ± SD, SD",2790 ± 900 ng/mL
same,"AUCss,24h, range",[3],16400 to 117000 ng·h/mL
same,clearance,[4]; [6],0.433 ± 0.067 mL/min/kg
same,half-life,[4]; [6],5.55 ± 0.942 h
same,volume of distribution,[4]; [6],0.204 ± 0.026 L/kg
same,dose excreted unchanged in the urine,"[4]; ref Zavascki et al., 2008",≤ 4%
same,incidence of polymyxin B-induced AKI (RIFLE criteria),[5]; 5/9 patients,55.6%
same,"patients with at least one of neurotoxicity, nephrotoxicity, hyperpigmentation",[5]; 8/9 patients,88.9%
same,abdominal pain,"[5]; during polymyxin B treatment, all patients",no abdominal pain was reported by any patient
same,"Hyperpigmentation, patients",[5]; [7],1/9
same,"Nephrotoxicity, patients",[5]; [7],5/9
same,"Neurotoxicity, patients",[5]; [7],5/9
same,Study completion per protocol (Withdrawal reasons),"[5]; patient 1, treatment duration 6 days",Withdraw (AKI)
same,Study completion per protocol (Withdrawal reasons),"[5]; patient 2, treatment duration 6 days",Withdraw (AKI)
same,Study completion per protocol (Withdrawal reasons),"[5]; patient 3, treatment duration 14 days",Yes
same,Study completion per protocol (Withdrawal reasons),"[5]; patient 4, treatment duration 1 day (loading dose only)","Withdraw (pruritus and numbness on face and head, ataxia)"
same,Study completion per protocol (Withdrawal reasons),"[5]; patient 5, treatment duration 5 days","Withdraw (AKI, pruritus and numbness on face and head, ataxia)"
same,Study completion per protocol (Withdrawal reasons),"[5]; patient 6, treatment duration 14 days",Yes
same,Study completion per protocol (Withdrawal reasons),"[5]; patient 7, treatment duration 14 days",Yes
same,Study completion per protocol (Withdrawal reasons),"[5]; patient 8, treatment duration 4 days","Withdraw (AKI, pruritus and numbness on face and head, ataxia)"
same,Study completion per protocol (Withdrawal reasons),"[5]; patient 9, treatment duration 14 days",Yes
same,neurotoxicity among conscious patients,[5]; seven conscious patients (two sedated),Five of seven and 5 of 7
same,fAUC24h/MIC target,"K. pneumoniae; 1-log10 reduction against K. pneumoniae, murine thigh infection",17.4
same,target values of fAUC/MIC,"K. pneumoniae; 1 log10 kill, mouse thigh infection, three strains of K. pneumoniae",3.7–28.0
same,2 log10 kill,"K. pneumoniae; mouse thigh infection, three strains of K. pneumoniae",2 log10 kill could not be achieved with even the highest tolerated dose
